Results: patent US20140079836A1, “METHODS AND COMPOSITIONS FOR ALTERING HEALTH, WELLBEING, AND LIFESPAN” (LifeSpan Extension, LLC, priority 2008, published 2014)

Test system: entire human genome (gene expression profile)
Assay: Agilent whole human genome array, skin fibroblasts AG07999, antioxidant with or without UV
Assay type: cell-based
Procedure: Cell cultures: A human skin fibroblast cell culture was obtained through the Coriell Cell Repository from the National Institute on Aging Cell Repository. […] Culture media: Cells were grown in Minimal Essential Medium supplemented with 10% fetal bovine serum, 2 mM L-glutamine, 2 mM Glutamax I. […] All cultures were incubated at 37° C. with 5% CO2 in a humidified chamber. […] On Day 5 after 24 hours of exposure to test conditions, the cells were isolated and the RNA isolated using the RT^2q PCR-grade RNA isolation kit (Superarray Bioscience Corporation). […] Analysis of Agilent Whole Human Genome Arrays: RNA taken from both samples was sent to Cogenics, Inc. Morrisville, N.C. Cogenics, Inc. is a leading, state-of-the-art, microarray service provider that facilitates and accelerates transcriptome profiling and gene discovery processes for industrial and academic researchers. Cogenics' procedure for processing samples is as follows: RNA samples are received and analyzed by Cogenics, Inc. using rigorous standardized procedures that are designed to ensure quality and chain of custody. Each sample undergoes a thorough quality analysis using an Agilent Bioanalyzer microfluidics device, and is precisely quantified using a Nanodrop-1000 spectro-photometer. When the Agilent Oligonucleotide Microarray Platform is utilized, samples are fluorescently labeled using the Agilent Low-Input Linear Amplification Kit. Upon completion of this process, the labeled cRNA products are assessed using the same processes described above. These labeled samples are then fragmented and hybridized to oligonucleotide microarrays. The microarrays are washed and then scanned using an Agilent DNA Microarray Scanner with Sure Scan technology. Data is extracted from the images produced by the scanner using Agilent's Feature Extraction software. At this point, the scanned image is visually inspected for defects, and the extracted data is statistically analyzed to ensure quality of the assay. Extracted data and images can be loaded into Rosetta Resolver Gene Expression Data Analysis System for in-depth analysis, both from a quality standpoint, as well as to develop biological understanding. […] A table was generated and provided as a tab-delimited text file. This file will contain the log ratio, fold-change, log ratio p-value, etc. for every transcript measured by the microarray. Using Rosetta Resolver, a single ratio comparison was compiled based on the results of the two fluorophore reversal hybridization performed in the context of this project. The ratios were calculated such that the Tx sample was in the numerator and the UnTx sample was in the denominator. A table was generated, saved as tab-delimited text files, and is provided on the DVD that accompanied this report in the “Objective—1” subdirectory or the “Data_Analysis” directory. These files contain the log ratio, fold-change, log ratio p-value, etc. for every transcript present on the microarray. […] A table for will be generated and provided as a tab-delimited text file. The file will contain the log ratio, fold-change, log ratio p-value, etc. for only the differentially expressed transcripts within the context of the comparison. […] These criteria were applied to the comparison made in Objective 1. A table was generated, saved as tab-delimited text files, and is provided on the DVD that accompanied this report in the “Objective—1” subdirectory or the “Data_Analysis” directory. […] Cell cultures: A human skin fibroblast cell culture (or cultures) will be obtained through the Coriell Cell Repository from the National Institute on Aging Cell Repository. […] Culture media: Cells will be grown in Minimal Essential Medium supplemented with 10% fetal bovine serum, 2 mM L-glutamine, 2 mM Glutamax I.

SMILES: COC1=C(OC)C(=O)C(CCCCCCCCCCO)=C(C)C1=O [Idebenone, 6-(10-hydroxydecyl)-2,3-dimethoxy-5-methyl-1,4-benzoquin-one]
- STOML2 Expression (Alone): 1.2
- TAGLN Expression (Alone): −1.2
- TBXA2R Expression (Alone): −1.1
- TEP1 Expression (Alone): 1.0
- TERF1 Expression (Alone): −1.0
- TERT expression (Alone): 1.1
- TFAP2A Expression (Alone): −1.2
- TFAP2B Expression (Alone): 1.0
- TFAP2C Expression (Alone): −1.1
- TFRC Expression (Alone): 1.1
- TGFA Expression (Alone): 1.0
- TGFB1 Expression (Alone): 1.0
- TGFBR2 Expression (Alone): −1.3
- TGM1 Expression (Alone): −1.1
- TH Expression (Alone): 1.6
- THBS1 Expression (Alone): −1.1
- TIMP1 Expression (Alone): −1.4
- TIMP2 Expression (Alone): −1.4
- TK1 Expression (Alone): 1.6
- TM4SF1 Expression (Alone): −1.1
- TNF Expression (Alone): 1.1
- TNFRSF1A Expression (Alone): −1.1
- TNFRSF1B Expression (Alone): −1.8
- TNFRSF11B Expression (Alone): 1.0
- TOP2A Expression (Alone): 1.6
- TYMS Expression (Alone): 1.2
- UBE2C Expression (Alone): 1.5
- UBE2V1 Expression (Alone): −1.1
- VEGFC Expression (Alone): 1.0
- XRCC6BP1 Expression (Alone): 1.1
- YWHAZ Expression (Alone): 1.0
- AKT1 Expression (Idebenone + UVB): −1.6
- ALOX12 Expression (Idebenone + UVB): 1.8
- APOE Expression (Idebenone + UVB): −1.2
- ARG2 Expression (Idebenone + UVB): 1.2
- ATOX1 Expression (Idebenone + UVB): −1.0
- CAMK1 Expression (Idebenone + UVB): −1.7
- CAT Expression (Idebenone + UVB): −1.3
- CCNA1 Expression (Idebenone + UVB): 1.0
- CCS Expression (Idebenone + UVB): −1.2
- CDKN1A Expression (Idebenone + UVB): −1.1
- CYBA Expression (Idebenone + UVB): −1.2
- CYGB Expression (Idebenone + UVB): −1.4
- DDAH2 Expression (Idebenone + UVB): 1.0
- DLG4 Expression (Idebenone + UVB): −1.0
- DNCL1 Expression (Idebenone + UVB): 1.0
- DND1 Expression (Idebenone + UVB): −1.0
- DUOX1 Expression (Idebenone + UVB): 1.2
- DUOX2 Expression (Idebenone + UVB): 2.0
- DUSP1 Expression (Idebenone + UVB): 1.2
- EGFR Expression (Idebenone + UVB): −1.0
- EPX Expression (Idebenone + UVB): −2.2
- FOXM1 Expression (Idebenone + UVB): −1.5
- GCH1 Expression (Idebenone + UVB): −1.7
- GCHFR Expression (Idebenone + UVB): 1.0
- GLA Expression (Idebenone + UVB): 1.0
- GLRX2 Expression (Idebenone + UVB): 1.0
- GPR156 Expression (Idebenone + UVB): 1.3
- GPX1 Expression (Idebenone + UVB): −1.1
- GPX2 Expression (Idebenone + UVB): −1.2
- GPX3 Expression (Idebenone + UVB): −1.2
- GPX4 Expression (Idebenone + UVB): −1.1
- GPX5 Expression (Idebenone + UVB): 1.4
- GRIN2D Expression (Idebenone + UVB): 1.1
- GSS Expression (Idebenone + UVB): −1.1
- HSP90AB1 Expression (Idebenone + UVB): −1.3
- IL8 Expression (Idebenone + UVB): 1.0
- IL10 Expression (Idebenone + UVB): 1.1
- INS Expression (Idebenone + UVB): 1.1
- JUN Expression (Idebenone + UVB): −1.1
- KRT1 Expression (Idebenone + UVB): 1.0
- LPO Expression (Idebenone + UVB): 1.1
- MBL2 Expression (Idebenone + UVB): 1.0
- MPO Expression (Idebenone + UVB): 1.0
- MSRA Expression (Idebenone + UVB): 1.2
- MT3 Expression (Idebenone + UVB): 1.1
- MTL5 Expression (Idebenone + UVB): −1.1
- MYB Expression (Idebenone + UVB): 1.0
- NCF1 Expression (Idebenone + UVB): −1.2
- NCF2 Expression (Idebenone + UVB): 1.6
- NME5 Expression (Idebenone + UVB): 1.2
- NOS1 Expression (Idebenone + UVB): 1.2
- NOS2A Expression (Idebenone + UVB): 1.1
- NOS3 Expression (Idebenone + UVB): −1.0
- NOSIP Expression (Idebenone + UVB): −1.2
- NOSTRIN Expression (Idebenone + UVB): 1.0
- NOX5 Expression (Idebenone + UVB): −1.2
- NQO1 Expression (Idebenone + UVB): −1.2
- NRF1 Expression (Idebenone + UVB): −1.4
- NUDT1 Expression (Idebenone + UVB): −1.1
- OXR1 Expression (Idebenone + UVB): 1.1
- PGC Expression (Idebenone + UVB): 1.2
- PKAR1B Expression (Idebenone + UVB): −1.0
- PNKP Expression (Idebenone + UVB): −1.3
- PP3CA Expression (Idebenone + UVB): 1.1
- PRDX2 Expression (Idebenone + UVB): 1.0
- PRDX6 Expression (Idebenone + UVB): 1.1
- PREX1 Expression (Idebenone + UVB): −1.1
- PRG3 Expression (Idebenone + UVB): −1.0
- PRKCA Expression (Idebenone + UVB): −1.1
- PRNP Expression (Idebenone + UVB): 1.0
- RNF7 Expression (Idebenone + UVB): −1.0
- SCARA3 Expression (Idebenone + UVB): −1.0
- SCRT2 Expression (Idebenone + UVB): 1.3
- SELS Expression (Idebenone + UVB): 1.0
- SEPP1 Expression (Idebenone + UVB): 1.0
- SGK2 Expression (Idebenone + UVB): −1.2
- SIRT2 Expression (Idebenone + UVB): −1.1
- SOD1 Expression (Idebenone + UVB): −1.1
- SOD2 Expression (Idebenone + UVB): 1.0
- SOD3 Expression (Idebenone + UVB): 1.1
- SRXN1 Expression (Idebenone + UVB): −1.1
